Results: US20120165403A1, “METHODS OF INHIBITING THE ACTIVITY OF HSP90 AND/OR ARYL HYDROCARBON RECEPTOR” (UNIVERSITY OF ROCHESTER, priority 2004, published 2012)

How the values were obtained:
AhR [1] = test: Immunocytochemistry of AhR subcellular localization in Hepa cells; format: cell-based, mouse; conditions: 1 h
Protocol: Hepa cells were plated onto four-well chamber slides (Becton Dickinson, Bedford, Mass.) at a density of 2.0×10^4 and incubated overnight. Cells were treated with either vehicle (DMSO), TCDD (150 pM), EGCG alone (200 μM), or EGCG in the presence of TCDD (150 pM) for 1 h. Cells were fixed with 3.7% formalin at room temperature for 10 minutes, followed by a four minute incubation in anhydrous methanol at 4° C. All antibodies were filtered through a 0.45 micron filter before staining Cells were blocked for one hour in phosphate buffered saline containing 4% BSA, incubated with anti-AhR at a 1:2000 dilution for two hours at room temperature, followed by a one hour incubation with 1:1000 anti-rabbit Alexa-Fluor conjugated secondary antibody (Molecular Probes, Eugene Oreg.). Nuclei were stained with DAPI (0.5 μg/ml) (Molecular Probes) for three minutes at room temperature. Slides were mounted with 50% glycerol and coverslipped. AhR staining and nuclear staining were visualized using a Nikon Eclipse TS110 fluorescent microscope (40× magnification). Fluorescent images were captured using SPOT advanced software.

[2] = tested on: TCDD-mediated CYP1A1 gene induction; test: CYP1A1 expression by Western blot in Hepa1c1c7 cells; format: cell-based, mouse
Protocol: (§1) Mouse hepatoma cells, Hepa1c1c7 (Hepa), and BP^rCl cells were maintained in modified Eagle's medium (Sigma) supplemented with 10% heat-inactivated fetal bovine serum, sodium pyruvate, L-glutamine, sodium bicarbonate, and Gentamicin (MEM+), at 37° C. in a humid atmosphere with 5% CO2. BP^rCl cells are a derivative of Hepa1c1c7 cells that lack ARNT protein expression and function (Probst et al., Mol. Pharmacol. 44:511-518 (1993), which is hereby incorporated by reference in its entirety). Upon reaching 90% confluency, cells were harvested and homogenized in HEDG buffer (25 mM HEPES, 1.5 mM Na2EDTA, 1 mM dithiothreitol, 10% (v/v) glycerol, pH 7.6) containing protease inhibitors (Roche Applied Science complete mini cocktail tablet, Indianapolis, Ind.). Both Hepa and BP^rC1 cytosols were prepared by centrifugation of the homogenate at 100,000 g for 45 min.
Hepa cells were plated onto 6-well plates at a density of 5×10^5 cells/well and incubated overnight at 37° C. Cells were treated with vehicle (DMSO), TCDD (150 pM), EGCG, or EGCG in the presence of TCDD (150 pM) for 4 hrs. Cells were lysed (0.2% Triton, 5 mM EDTA in PBS) and total protein quantified using the Coomassie Plus Protein Assay Reagent (Pierce, Rockford, Ill.). Protein (30 μg) was separated by SDS-PAGE (7.5% acrylamide resolving gel) and transferred to PVDF membrane (Millipore, Bedford, Mass.). […]

AhR [3] = format: biochemical, mouse
Protocol: Hepa cytosol (2.5 mg protein/ml) was incubated with a range of concentrations of EGCG (1-200 μM) or EGCG in the presence of 3 nM TCDD for 2 h at room temperature. Treated cytosols (21-25 μg) were mixed with nonspecific DNA (herring sperm), 0.08M NaCl, and 25,000-45,000 cpm of [^32P]-endlabeled oligonucleotide containing a single consensus DRE (Gasiewicz et al., Biochem. Pharmacol. 52:1787-1803 (1996), which is hereby incorporated by reference in its entirety). Samples were subjected to nondenaturing electrophoresis (4% acrylamide) and visualized using a Phosphoimager.

mouse AhR = test: Competitive binding by velocity sedimentation on sucrose density gradients
Protocol: as §1
Competitive binding of EGCG was analyzed by velocity sedimentation on sucrose gradients in a vertical tube rotor (Tsui et al., Can. J. Physiol. Pharmacol 59:927-931 (1981); Jensen et al., Toxicol. Sci. 64:41-56 (2001), which are hereby incorporated by reference in their entirety). Hepa cytosol (100 μl of 2.5 mg/ml) or BP^rCl cytosol was incubated for two hours at room temperature with either 3 nM ^3H-TCDD, 0.5 nM ^3H-TCDD, or 5 nM ^3H-BNF, in the presence of DMSO, 150-fold excess TCDF, 1 μM 3M4NF, or EGCG. Cytosols were washed with charcoal-dextran (1 mg charcoal/mg protein) in HEDG, and applied to a 10-30% (w/v) sucrose gradient in Beckman Quick-Seal centrifuge tubes (Beckman, Palo Alto, Calif.). [Methyl-^14C]-BSA was used as an internal sedimentation marker. The gradients were centrifuged for 2 h at 372,000×g in a Beckman VTI-80 rotor. Fractions were collected from the top at a rate of 1 ml/min, 0.2 ml/fraction. For competitive binding assays, fractions were assayed for radioactivity with ScintiVerse (Fisher Scientific, Fair Lawn, N.J.). […] For AhR and hsp90 density analysis, protein contained within an aliquot (200 of each fraction was separated by SDS-PAGE (7.5% acrylamide resolving gel) and transferred to PVDF membranes. Membranes were probed with antibodies recognizing AhR (Biomol) or hsp90 (Stressgen, Victoria, BC Canada). A crude estimate of the sedimentation coefficient for the EGCG shifted AhR complex was calculated by the method of Martin and Ames (Martin et al., J. Biol. Chem. 236:1372-1379 (1961), which is hereby incorporated by reference in its entirety) relative to the ^14C-BSA (4.4S) standard.

O=C(O[C@@H]1Cc2c(O)cc(O)cc2O[C@@H]1c1cc(O)c(O)c(O)c1)c1cc(O)c(O)c(O)c1 [EGCG, epigallocatechin gallate]
effect on TCDD induced nuclear localization of the AhR (AhR [1]; 200 μM EGCG with 150 pM TCDD): did not attenuate this TCDD induced nuclear localization
subcellular localization of the AhR, treatment alone (AhR [1]; EGCG 200 μM or TCDD 150 pM): remarkable redistribution of the AhR from the cytosol to the nucleus
CYP1A1 gene induction, treatment alone ([2]; EGCG alone, Western blot): no effect on CYP1A1 gene induction
inhibition of TCDD-mediated CYP1A1 gene induction ([2]; simultaneously with 150 pM TCDD): concentration-dependent inhibition
DRE binding, treatment alone (AhR [3]; Hepa cytosol and extracts from treated whole cells, EGCG alone): DRE binding was not observed
inhibition of TCDD-induced AhR-DRE binding (AhR [3]; Hepa cytosol, 100 μM EGCG, 3 nM TCDD, 2 h): ~100%
effect on the TCDD-AhR-DRE shifted band (AhR [3]; Hepa cytosol, EGCG 1-200 μM, 3 nM TCDD): concentration dependent decrease
displacement of TCDD from the AhR ligand-binding site (mouse AhR; ARNT deficient BPrC1 cytosol, lower concentrations of 3H-TCDD): incapable of displacing TCDD
inhibition of TCDD binding after pretreatment (mouse AhR; BPrC1 cytosol pretreated 30 minutes with EGCG): failed to inhibit TCDD binding
competition with 3H-TCDD for specific binding to the AhR (9S peak) (mouse AhR; Hepa cytosol, 3 nM 3H-TCDD, 2 h, room temperature): failed to attenuate the ^3H-TCDD 9S signal
competition with 3H-BNF for binding to the AhR (mouse AhR; Hepa cytosol, 5 nM 3H-BNF, 2 h, room temperature): failed to inhibit BNF binding
